From ChEMBL document CHEMBL1201862, “PubChem BioAssay data set” (2004)
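Five compound concentrations were applied to cells in 96-well plates for 48 hours; endpoints were derived by simple linear interpolation of the resulting dose-response curve. The concentration for 50% growth inhibition is given as GI50.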 Activity calls are given as the source filed them. Rule as the data show it: active = GI50 up to about 1.1 µM and inactive = higher.

How the values were obtained:
Assay in all cases: NCI-60 cell line screen, 48 h
SNB-19 = test system: SNB-19
SK-MEL-2 = test system: SK-MEL-2
MOLT-4 = test system: MOLT-4
NCI-H226 = test system: NCI-H226
HL-60 = test system: HL-60
SF-539 = test system: SF-539
SK-MEL-5 = test system: SK-MEL-5
OVCAR-4 = test system: OVCAR-4
LOX IMVI = test system: LOX IMVI
ACHN = test system: ACHN
A549 = test system: A549
SR = test system: SR
OVCAR-8 = test system: OVCAR-8
RXF 393 = test system: RXF 393
OVCAR-5 = test system: OVCAR-5
M14 = test system: M14
HT-29 = test system: HT-29
HCC 2998 = test system: HCC 2998

Compound	GI50 (SNB-19)	GI50 (SK-MEL-2)	GI50 (MOLT-4)	GI50 (NCI-H226)	GI50 (HL-60)	GI50 (SF-539)	GI50 (SK-MEL-5)	GI50 (OVCAR-4)	GI50 (LOX IMVI)	GI50 (ACHN)	GI50 (A549)	GI50 (SR)	GI50 (OVCAR-8)	GI50 (RXF 393)	GI50 (OVCAR-5)	GI50 (M14)	GI50 (HT-29)	GI50 (HCC 2998)
Cc1ccc(S(=O)(=O)OC(c2ccc(Cl)cc2Cl)C2OC(=O)c3ccccc32)cc1 (stereo not drawn)	42.7 µM (inactive)	73.6 µM (inactive)	30.2 µM (inactive)	19.7 µM (inactive)	21.4 µM (inactive)	73.6 µM (inactive)	53.1 µM (inactive)	47.5 µM (inactive)	> 100 µM (inactive)	> 100 µM (inactive)	68.5 µM (inactive)	30.6 µM (inactive)	> 100 µM (inactive)	67.1 µM (inactive)	> 100 µM (inactive)	> 100 µM (inactive)	38.6 µM (inactive)	–
Cn1cccc1/C=C/c1cc(Br)c(/C=C/c2cccn2C)cc1Br	24.2 µM (inactive)	14.6 µM (inactive)	11.6 µM (inactive)	12.3 µM (inactive)	13.6 µM (inactive)	14.6 µM (inactive)	15.2 µM (inactive)	5.4 µM (inactive)	18.3 µM (inactive)	10.2 µM (inactive)	11.9 µM (inactive)	–	> 10 µM (inactive)	12.6 µM (inactive)	16.8 µM (inactive)	19 µM (inactive)	18.6 µM (inactive)	2.62 µM (inactive)
N#CCc1c(-c2ccccc2)n(S(=O)(=O)c2ccccc2)c2ccccc12	63.5 µM (inactive)	> 100 µM (inactive)	41.3 µM (inactive)	> 100 µM (inactive)	> 100 µM (inactive)	> 100 µM (inactive)	> 100 µM (inactive)	37.3 µM (inactive)	–	> 100 µM (inactive)	> 100 µM (inactive)	12.2 µM (inactive)	> 100 µM (inactive)	–	> 100 µM (inactive)	> 100 µM (inactive)	> 100 µM (inactive)	> 100 µM (inactive)
COc1ccc(C(=O)C(C(=O)CCC(=O)Nc2cccc(Cl)c2)c2ccc(OC)cc2)cc1 (stereo not drawn)	> 100 µM (inactive)	> 100 µM (inactive)	> 100 µM (inactive)	> 100 µM (inactive)	> 100 µM (inactive)	> 100 µM (inactive)	> 100 µM (inactive)	> 100 µM (inactive)	–	> 100 µM (inactive)	> 100 µM (inactive)	> 100 µM (inactive)	> 100 µM (inactive)	–	9.42 µM (inactive)	> 100 µM (inactive)	> 100 µM (inactive)	> 100 µM (inactive)
Cc1cc2c(cc1C)[n+]([O-])c(C(=O)C/C(=N/OCCCc1ccccc1)C(=O)Nc1cc(Cl)ccc1Cl)c(C)[n+]2[O-]	> 100 µM (inactive)	0.0562 µM (active)	22.9 µM (inactive)	> 100 µM (inactive)	> 100 µM (inactive)	> 100 µM (inactive)	> 100 µM (inactive)	> 100 µM (inactive)	> 100 µM (inactive)	> 100 µM (inactive)	> 100 µM (inactive)	–	> 100 µM (inactive)	> 100 µM (inactive)	> 100 µM (inactive)	> 100 µM (inactive)	> 100 µM (inactive)	> 100 µM (inactive)
Cc1cc(Br)ccc1/N=N/c1c(C)nn(-c2ccccc2)c1-c1ccccc1	> 100 µM (inactive)	> 100 µM (inactive)	> 100 µM (inactive)	–	5.05 µM (inactive)	92.3 µM (inactive)	29 µM (inactive)	> 100 µM (inactive)	16.6 µM (inactive)	54.7 µM (inactive)	81.8 µM (inactive)	> 100 µM (inactive)	> 100 µM (inactive)	33.3 µM (inactive)	53.7 µM (inactive)	> 100 µM (inactive)	44.5 µM (inactive)	–
C/C(CC(=O)Nc1ccc(C)cc1)=N\NC(N)=S	–	> 100 µM (inactive)	> 100 µM (inactive)	> 100 µM (inactive)	> 100 µM (inactive)	> 100 µM (inactive)	> 100 µM (inactive)	–	54.8 µM (inactive)	79.4 µM (inactive)	> 100 µM (inactive)	–	> 100 µM (inactive)	> 100 µM (inactive)	> 100 µM (inactive)	66.7 µM (inactive)	> 100 µM (inactive)	> 100 µM (inactive)
[N-]=[N+]=NC1(Cc2ccccc2)C(=O)c2cccc3c2N(CCC3)C1=O (stereo not drawn)	–	> 100 µM (inactive)	> 100 µM (inactive)	> 100 µM (inactive)	> 100 µM (inactive)	> 100 µM (inactive)	> 100 µM (inactive)	> 100 µM (inactive)	> 100 µM (inactive)	> 100 µM (inactive)	> 100 µM (inactive)	> 100 µM (inactive)	> 100 µM (inactive)	> 100 µM (inactive)	> 100 µM (inactive)	> 100 µM (inactive)	> 100 µM (inactive)	–
CC(=O)OCCOCn1c2ccccc2c2c3c(c4c5ccccc5n(COCCOC(C)=O)c4c21)C(=O)N(Cc1ccccc1)C3=O	> 100 µM (inactive)	> 100 µM (inactive)	> 100 µM (inactive)	> 100 µM (inactive)	> 100 µM (inactive)	> 100 µM (inactive)	> 100 µM (inactive)	> 100 µM (inactive)	> 100 µM (inactive)	> 100 µM (inactive)	> 100 µM (inactive)	–	> 100 µM (inactive)	> 100 µM (inactive)	> 100 µM (inactive)	> 100 µM (inactive)	> 100 µM (inactive)	> 100 µM (inactive)
CCOC(=O)C1=C(C)N2CCOC2(C)C(C(=O)OC)C1c1cccc(Cl)c1 (stereo not drawn)	> 100 µM (inactive)	> 100 µM (inactive)	–	–	56.4 µM (inactive)	> 100 µM (inactive)	> 100 µM (inactive)	–	> 100 µM (inactive)	> 100 µM (inactive)	> 100 µM (inactive)	> 100 µM (inactive)	> 100 µM (inactive)	–	> 100 µM (inactive)	> 100 µM (inactive)	> 100 µM (inactive)	> 100 µM (inactive)
COC1(OC)CC2OC1C1N=NN(C(=O)OC(C)(C)C)C21 (stereo not drawn)	–	> 100 µM (inactive)	35.2 µM (inactive)	> 100 µM (inactive)	24.3 µM (inactive)	> 100 µM (inactive)	> 100 µM (inactive)	> 100 µM (inactive)	> 100 µM (inactive)	> 100 µM (inactive)	> 100 µM (inactive)	–	–	> 100 µM (inactive)	> 100 µM (inactive)	> 100 µM (inactive)	> 100 µM (inactive)	> 100 µM (inactive)
COc1ccc2c(c1OC)C(C=C(c1ccccc1)c1ccccc1)CN(C)C2 (stereo not drawn)	29.9 µM (inactive)	–	31.6 µM (inactive)	22.6 µM (inactive)	–	21.9 µM (inactive)	15.8 µM (inactive)	41.4 µM (inactive)	–	24.4 µM (inactive)	30 µM (inactive)	–	20.4 µM (inactive)	–	6.79 µM (inactive)	14.5 µM (inactive)	6.82 µM (inactive)	24.9 µM (inactive)
O=C1CC(c2c(-c3ccccc3)[nH]c3ccccc23)C(=O)N1c1ccccc1 (stereo not drawn)	–	> 100 µM (inactive)	61.5 µM (inactive)	> 100 µM (inactive)	44.6 µM (inactive)	> 100 µM (inactive)	56.8 µM (inactive)	68.9 µM (inactive)	–	40.5 µM (inactive)	41.8 µM (inactive)	–	> 100 µM (inactive)	27.4 µM (inactive)	> 100 µM (inactive)	> 100 µM (inactive)	> 100 µM (inactive)	> 100 µM (inactive)
CCOC(=O)/C(C#N)=C(O)/C(=C/c1ccccc1Cl)NC(=O)c1ccccc1	> 100 µM (inactive)	–	> 100 µM (inactive)	> 100 µM (inactive)	> 100 µM (inactive)	> 100 µM (inactive)	> 100 µM (inactive)	> 100 µM (inactive)	–	> 100 µM (inactive)	> 100 µM (inactive)	–	> 100 µM (inactive)	–	> 100 µM (inactive)	> 100 µM (inactive)	> 100 µM (inactive)	> 100 µM (inactive)
O=C1C2C3C=C4c5ccccc5N(c5ccccc5)C4(C2C(=O)N1c1ccccc1)C1C(=O)N(c2ccccc2)C(=O)C31 (stereo not drawn)	> 100 µM (inactive)	> 100 µM (inactive)	3.3 µM (inactive)	–	> 100 µM (inactive)	–	–	–	> 100 µM (inactive)	> 100 µM (inactive)	> 100 µM (inactive)	6.35 µM (inactive)	> 100 µM (inactive)	–	> 100 µM (inactive)	> 100 µM (inactive)	6.56 µM (inactive)	> 100 µM (inactive)
CCCCCCCCCCCCCCCCc1c(O)nc(NN)nc1C(=O)OC	> 50 µM (inactive)	> 50 µM (inactive)	> 50 µM (inactive)	–	> 50 µM (inactive)	> 50 µM (inactive)	> 50 µM (inactive)	> 50 µM (inactive)	> 50 µM (inactive)	> 50 µM (inactive)	> 50 µM (inactive)	–	> 50 µM (inactive)	> 50 µM (inactive)	> 50 µM (inactive)	> 50 µM (inactive)	> 50 µM (inactive)	> 50 µM (inactive)
Cc1ccc(SSCCCCS(=O)O)cc1	34.7 µM (inactive)	25.1 µM (inactive)	> 100 µM (inactive)	–	3.89 µM (inactive)	15 µM (inactive)	11.5 µM (inactive)	15.8 µM (inactive)	9.79 µM (inactive)	19 µM (inactive)	18.5 µM (inactive)	–	> 10 µM (inactive)	12.7 µM (inactive)	45.4 µM (inactive)	16.4 µM (inactive)	21.7 µM (inactive)	25.1 µM (inactive)
